Assay [1] is described as follows: Inhibition of bacteria beta lactamase OXA-23 assessed as decrease in enzyme activity using nitrocefin as substrate preincubated for 10 mins followed by substrate addition measured for 10 mins by fluorescence plate reader analysis.
Assay [2] is described as follows: Inhibition of beta lactamase TEM-1 in Enterobacter cloacae assessed as decrease in enzyme activity using nitrocefin as substrate preincubated for 10 mins followed by substrate addition measured for 10 mins by fluorescence plate reader analysis.
Assay [3] relates to Klebsiella pneumoniae. Kind of assay: Potentiation of meropenem-induced antibacterial activity against Klebsiella pneumoniae expressing SHV-11/OXA-121 assessed as meropenem MIC at 4 ug/ml by broth microdilution method (reference value: 16 ug/ml). The conditions noted are these: dose 4 µg/ml. The class given is functional. (In general: In broth dilution the organism is exposed to a series of concentrations in liquid medium.)

Assay [4] can be described thus: Inhibition of beta lactamase AmpC in Enterobacter cloacae assessed as decrease in enzyme activity using nitrocefin as substrate preincubated for 10 mins followed by substrate addition measured for 10 mins by fluorescence plate reader analysis.
Assay [5] can be described thus: Inhibition of beta lactamase KPC-2 in Enterobacter cloacae assessed as decrease in enzyme activity using nitrocefin as substrate preincubated for 10 mins followed by substrate addition measured for 10 mins by fluorescence plate reader analysis.
In assay [6] the test system is Klebsiella pneumoniae. Kind of assay: Potentiation of meropenem-induced antibacterial activity against Klebsiella pneumoniae expressing TEM-OSBL/CTX-M-14/OXA-48 assessed as meropenem MIC at 4 ug/ml by broth microdilution method (reference value: 16 ug/ml). The settings on record: dose 4 µg/ml. The class given is functional.
Assay [7] in a line: Inhibition of beta lactamase OXA-48 in Enterobacter cloacae assessed as decrease in enzyme activity using nitrocefin as substrate preincubated for 10 mins followed by substrate addition measured for 10 mins by fluorescence plate reader analysis.
Assay [8] relates to Enterobacter cloacae. Put plainly: Potentiation of meropenem-induced antibacterial activity against Enterobacter cloacae expressing TEM-1/KPC-2 assessed as meropenem MIC at 4 ug/ml by broth microdilution method (reference value: 8 ug/ml). The class given is functional. The settings on record: dose 4 µg/ml.
For assay [9], the system named is Klebsiella pneumoniae. Kind of assay: Potentiation of meropenem-induced antibacterial activity against Klebsiella pneumoniae expressing TEM-1/SHV-11/KPC-3 assessed as meropenem MIC at 4 ug/ml by broth microdilution method (reference value: 128 ug/ml). In kind it is functional. The conditions noted are these: dose 4 µg/ml.
A short description of assay [10]: Inhibition of beta lactamase CTXM-15 in Enterobacter cloacae assessed as decrease in enzyme activity using nitrocefin as substrate preincubated for 10 mins followed by substrate addition measured for 10 mins by fluorescence plate reader analysis.
Assay [11] concerns Acinetobacter baumannii. Put plainly: Potentiation of meropenem-induced antibacterial activity against Acinetobacter baumannii expressing OXA-23 assessed as meropenem MIC at 4 ug/ml by broth microdilution method (reference value: 32 ug/ml). The class given is functional. The conditions noted are these: dose 4 µg/ml.
The test system of assay [12] is Klebsiella pneumoniae. Put plainly: Antibacterial activity against Klebsiella pneumoniae expressing TEM-1/SHV-11/KPC-3 by broth microdilution method. In kind it is functional.
Assay [13] deals with Acinetobacter baumannii. Kind of assay: Antibacterial activity against Acinetobacter baumannii expressing OXA-23 by broth microdilution method. The class given is functional.
For assay [14], the system named is Klebsiella pneumoniae. Put plainly: Antibacterial activity against Klebsiella pneumoniae expressing SHV-11/OXA-181 by broth microdilution method. The class given is functional.
Assay [15] has as its system Enterobacter cloacae. Kind of assay: Antibacterial activity against Enterobacter cloacae expressing TEM-1/KPC-2 by broth microdilution method. In kind it is functional.
In assay [16] the test system is Klebsiella pneumoniae. Kind of assay: Antibacterial activity against Klebsiella pneumoniae expressing TEM-OSBL/CTX-M-14/OXA-48 by broth microdilution method. In kind it is functional.

Results on 13 molecules are retold here after ChEMBL document CHEMBL4699665, “Discovery of ANT3310, a Novel Broad-Spectrum Serine β-Lactamase Inhibitor of the Diazabicyclooctane Class, Which Strongly Potentiates Meropenem Activity against Carbapenem-Resistant Enterobacterales and Acinetobacter baumannii” (J Med Chem, 2020).

The structures appear in SMILES notation. Values after ≈ are worked out from the molar mass of the structure shown.

For `O=C1N2C[C@@H](CC[C@H]2CCl)N1OS(=O)(=O)[O-].[Na+]`, the IC50 in [1] is over 3000 nM; in assay [2] it was 135 nM; in assay [4], 26 nM; in assay [5] it was 28 nM; in [7] it was 443 nM; in assay [10], 84 nM. In addition, the MIC came out at 16 µg/mL in [3]; 8 µg/mL in assay [6]; 0.06 µg/mL in [8]; 2 µg/mL in assay [9]; 32 µg/mL in assay [11].
Take `O=C1N2C[C@@H](CC[C@H]2COC(F)(F)F)N1OS(=O)(=O)[O-].[Na+]`: the IC50 is over 3000 nM in assay [1]; 117 nM in [2]; 23 nM in [4]; 13 nM in assay [5]; 15 nM in assay [7]; 11 nM in [10]. Moreover, the MIC is 16 µg/mL in [3]; 8 µg/mL in assay [6]; 0.25 µg/mL in [8]; 32 µg/mL in assay [9]; 32 µg/mL in [11].
`O=C1N2C[C@@H](CC[C@H]2S(=O)(=O)C(F)(F)F)N1OS(=O)(=O)[O-].[Na+]`: the IC50 in assay [2] was 1 nM; in [4] it was under 1 nM; in [5], 15 nM; in assay [7], 15 nM; in assay [10] it was 2 nM. Besides, the MIC in [3] was 16 µg/mL; in assay [6], 8 µg/mL; in assay [8], 0.06 µg/mL; in assay [9], 8 µg/mL; in [11], 32 µg/mL.
Turning to `O=C1N2C[C@@H](CC[C@H]2C(F)(F)c2nccs2)N1OS(=O)(=O)[O-].[Na+]`, the IC50 is over 3000 nM in [1]; 216 nM in [2]; 1 nM in [4]; 3 nM in assay [5]; 1110 nM in assay [7]; 19 nM in assay [10]. In addition, the MIC in [3] stood at 16 µg/mL; in [6], 16 µg/mL; in assay [8] it was 0.125 µg/mL; in [9], 8 µg/mL; in assay [11], 32 µg/mL.
Turning to `O=C1N2C[C@@H](CC[C@H]2C(F)F)N1OS(=O)(=O)[O-].[Na+]`, the IC50 amounted to 1600 nM in [1]; 208 nM in [2]; 35 nM in assay [4]; 7 nM in [5]; 64 nM in assay [7]; 17 nM in [10]. Also, the MIC in assay [3] turned out to be 1 µg/mL; in assay [6] it was 2 µg/mL; in assay [8], 0.06 µg/mL; in [9], 1 µg/mL; in assay [11], 16 µg/mL.
As to `O=C1N2C[C@@H](CC[C@H]2Cl)N1OS(=O)(=O)[O-].[Na+]`, the IC50 worked out at 1 nM in [2]; 4 nM in [4]; 31 nM in assay [5]; 269 nM in assay [7]; 8 nM in assay [10]. Moreover, the MIC in assay [3] was found to be 4 µg/mL; in assay [6], 4 µg/mL; in [8], 0.06 µg/mL; in [9], 64 µg/mL; in assay [11], 32 µg/mL.
As for `O=C1N2CCC[C@H](C2)N1OS(=O)(=O)[O-].[Na+]`, the IC50 is over 3000 nM in assay [1]; 511 nM in assay [2]; over 3000 nM in [4]; over 3000 nM in assay [5]; 1340 nM in [7]; 1200 nM in [10]. Further, the MIC turned out to be 8 µg/mL in assay [3]; 4 µg/mL in assay [6]; 2 µg/mL in [8]; 64 µg/mL in assay [9]; 32 µg/mL in [11].
`O=C(NNC(=O)[C@@H]1CC[C@@H]2CN1C(=O)N2OS(=O)(=O)O)[C@@H]1CCCNC1` [ZIDEBACTAM]: the MIC is 2 µg/mL (≈ 5.11 µM) in assay [12]; over 128 µg/mL in [13]; 2 µg/mL (≈ 5.11 µM) in assay [14]; 0.5 µg/mL (≈ 1.28 µM) in assay [15]; 0.25 µg/mL (≈ 0.639 µM) in [16].
Take `O=C1N2C[C@@H](CC[C@H]2CF)N1OS(=O)(=O)[O-].[Na+]`: the IC50 in [1] was over 3000 nM; in assay [2] it was 492 nM; in assay [4], 304 nM; in assay [5], 51 nM; in assay [7] it was 154 nM; in assay [10] it was 119 nM. The MIC stood at 1 µg/mL in assay [3]; 1 µg/mL in [6]; 0.125 µg/mL in assay [8]; 2 µg/mL in assay [9]; 32 µg/mL in assay [11].
With `CC(F)(F)[C@@H]1CC[C@@H]2CN1C(=O)N2OS(=O)(=O)[O-].[Na+]`, the IC50 was over 3000 nM in assay [1]; 267 nM in assay [2]; 313 nM in [4]; 43 nM in assay [5]; 169 nM in assay [7]; 200 nM in [10]. Also, the MIC in assay [3] was 16 µg/mL; in assay [6] it was 8 µg/mL; in assay [8], 0.06 µg/mL; in assay [9] it was 2 µg/mL; in assay [11] it was 32 µg/mL.
Consider `O=C1N2C[C@@H](CC[C@H]2C(Cl)Cl)N1OS(=O)(=O)[O-].[Na+]`, for which the IC50 in assay [1] came out at 1680 nM; in [2], 403 nM; in assay [4], 52 nM; in assay [5], 4 nM; in [7], 178 nM; in assay [10], 178 nM. Further, the MIC worked out at 16 µg/mL in [3]; 16 µg/mL in [6]; 0.06 µg/mL in assay [8]; 2 µg/mL in [9]; 32 µg/mL in [11].
In the case of `O=C1N2C[C@@H](CC[C@H]2SC(F)(F)F)N1OS(=O)(=O)[O-].[Na+]`, the IC50 in [1] was 1320 nM; in [2], 26 nM; in assay [4] it was 2 nM; in [5], 2 nM; in [7] it was 99 nM; in [10], 10 nM. Further, the MIC in assay [3] was 8 µg/mL; in assay [6], 8 µg/mL; in assay [8] it was 0.03 µg/mL; in assay [9], 4 µg/mL; in assay [11] it was 32 µg/mL.
`O=C1N2C[C@@H](CC[C@H]2C(F)(F)F)N1OS(=O)(=O)[O-].[Na+]`: the IC50 in assay [1] was 810 nM; in assay [2], 810 nM; in assay [4], 4 nM; in [5], 6 nM; in assay [7], 19 nM; in [10] it was 10 nM. The MIC in assay [3] amounted to 2 µg/mL; in assay [6] it was 2 µg/mL; in assay [8], 0.06 µg/mL; in assay [9], 2 µg/mL; in assay [11], 16 µg/mL.

The IC50 is the midpoint of a concentration-inhibition curve. Broadly, the MIC is the smallest concentration in the dilution series that meets the test's criterion for growth inhibition.
